Test results taken from patent US20210315175A1, “METHODS OF MAKING FEMINIZED CANNABIS SATIVA SEED AND COMPOSITIONS THEREOF” (priority 2019, published 2021).

What was measured:
[1] = system: genetically female Cannabis ssp plants; test: 1-MCP root drench: induction of male flowers (Example 19); assay type: in vivo; conditions: 0.27 mM or 0.54 mM 1-MCP root drench, three treatments, 3 varieties
Procedure: To determine if the ethylene inhibitor 1-Methylcyclopropene (1-MCP) can induce male flowers on genetically female Cannabis ssp plants, 1-MCP was applied at two different rates to 3 different varieties, with 2 replicates per treatment. The plants were treated with 1-MCP three times, with the first treatment 51 days after seeding, which was on the day plants were transitioned from a vegetative, long day photoperiod (18 h day) to a reproductive, short day photoperiod (12 h day), the second treatment was applied 7 days later and the third treatment was 8 days after the second. For the first two treatments the low rate was 0.27 mM 1-MCP and 25 ml solution per plant was immediately applied as a root drench. The high rate was 0.54 mM and similarly, 25 ml of solution was applied as a root drench. For the third treatment, the dose was doubled by applying 50 ml of the solutions described above, as the plants were larger.

[2] = system: genetically female Cannabis ssp plants; test: AIB root drench: induction of male flowers and phytotoxicity (Example 21); assay type: in vivo
Procedure: To determine if the ethylene inhibitor 2-Aminoisobutyric acid (AIB) can induce male flowers on genetically female Cannabis ssp plants, three different rates of 2-Aminoisobutyric acid (AIB) were applied to plants as a root drench, with two applications per rate. The first application occurred 79 days after seeding, which was on the day plants were transitioned from a vegetative, long day photoperiod (18 h day) to a reproductive, short day photoperiod (12 h day), and the second treatment was applied 5 days later. The stem diameter of the plants on the day of the first treatment were 9 to 10 mm and the plants ranged from 37 to 54 cm in height. The three rates tested were 50, 150 and 300 mM AIB in water, and 150 ml of solution was applied to the roots as a soil drench.

Compound | chlorosis [1] | male structures [1] | survival and male structures ([2]; 50 and 150 mM AIB, two root drenches) | phytotoxicity ([2]; after the second treatment, particularly in the highest rate) | plant survival ([2]; highest rate (300 mM AIB), two root drenches) | phytotoxicity in leaf and meristematic tissues ([2]; within 2 days of the first treatment, 50, 150 and 300 mM AIB, 150 ml root drench)
CC1=CC1 [1-MCP, 1-Methylcyclopropene] | mild chlorosis of growing apices | no clear or consistent male structures were observed in any of the treatments | – | – | – | –
CC(C)(N)C(=O)O [AIB, 2-Aminoisobutyric acid] | – | – | survived and produced small male structures that did not produce viable pollen | more severe phototoxicity | the plant ultimately died | Mild phytotoxicity
